Active and inactive are the calls of the source. The calls are words filed in the database; no cut-off is given here.
Columns and labels:
Influenza A virus = assay: Antiviral activity against Influenza virus; format: functional, organism-based
[1] = system: Human immunodeficiency virus; assay: Antiviral activity against HIV; format: functional, organism-based

Row | Compound | Activity (Influenza A virus) | Activity [1]
1 | C=C(C)[C@H](O)COc1ccc(CC=NO)cc1 (mixture of isomers) | inactive | inactive
2 | C=C(C)[C@H](O)COc1ccc(CCO)cc1 | inactive | inactive
3 | C=C(C)[C@H](O)COc1ccc(CC(=O)O)cc1 | inactive | inactive

Source: ChEMBL document CHEMBL1667728, “Stachylines A-D from the sponge-derived fungus Stachylidium sp” (J Nat Prod, 2011)
